# According to patent US20240245633A1, “ROR Gamma Agonists as Enhancers of Protective Immunity” (University of Florida Research Foundation, Incorporated, priority 2015, published 2024):
# Marks after values point to notes of the source that are not given here.
# Key:
# RORγt LBD = biological target: T1, RORγt LBD (Homo sapiens, UniProt P51449); assay: Differential HDX-MS of RORγt LBD ± compounds; format: binding
# T1 construct: 5 μL of a 10 μM RORγt LBD solution (Apo or in complex with 10-excess compound)
# T1 sequence (P51449 269-508 limits assumed): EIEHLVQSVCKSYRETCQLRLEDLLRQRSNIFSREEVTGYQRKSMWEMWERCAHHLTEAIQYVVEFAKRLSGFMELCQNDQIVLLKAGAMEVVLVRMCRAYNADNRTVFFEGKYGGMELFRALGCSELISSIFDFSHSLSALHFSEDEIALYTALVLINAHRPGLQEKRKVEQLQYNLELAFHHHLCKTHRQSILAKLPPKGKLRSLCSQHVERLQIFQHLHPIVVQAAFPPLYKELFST
# Source text: (§1) While the mechanism of action of RORγt agonists on regulation of the immune checkpoint receptor PD-1 is unclear, a correlation between RORγt and PD-1 expression has been observed in PD-1 knockout mice Z Regardless, to gain insights into the structural mechanism for agonist activity we examined the impact of putative agonist ligands on the conformational dynamics of RORγt. To achieve this, we utilized differential hydrogen/deuterium exchange (HDX) mass spectrometry.
# (§2) HDX-MS. Solution-phase amide HDX was performed with a fully automated system as described previously with minor modifications^30,31. For differential HDX experiments, 5 μL of a 10 μM RORγt LBD solution (Apo or in complex with 10-excess compound) was diluted to 25 μL with D20-containing HDX buffer, and incubated at 4° C. for; 10 s, 30s, 60s, 900s, and 3,600s, Following on-exchange, unwanted forward or back exchange is minimized and the protein is denatured by dilution to 50 μL with 0.1% TFA in 3M urea (held at 4° C., pH 2.5). Samples are then passed across an immobilized pepsin column (prepared in house) at 50 μL min−1 (0.1% TFA, 15° C.) and the resulting peptides are trapped onto a Ce trap cartridge (Thermo Fisher, Hypersil Gold). Peptides were then gradient eluted (4% CH3CN to 40% CH3CN, 0,3% formic acid over 5 minutes, 4° C.) across a 1 mm×50 mm Cia HPLC column (Hypersil Gold, Thermo Fisher) and electrosprayed directly into a high resolution orbitrap mass spectrometer (Exactive, Thermo Fisher). Percent deuterium exchange values for peptide isotopic envelopes at each time point were calculated and processed using HDX Workbench^32 and overlaid onto RORγt crystal structures using pyMOL (DeLano Scientific). HDX data is presented as an average of three individual replicates across […] time points (10s, 60s, 300s, 900s, and 3600s).
# [1] = biological target: T2, RORγt LBD pretreated with ursolic acid (Homo sapiens, UniProt P51449); assay: Differential HDX-MS of RORγt pretreated with ursolic acid ± compound; format: binding
# T2 construct: 5 μL of a 10 μM RORγt LBD solution (Apo or in complex with 10-excess compound)
# T2 sequence (P51449 269-508 limits assumed): T1 sequence (P51449 269-508 limits assumed)
# Source text: as §1, §2
# Gal4-RORγ = biological target: T3, Gal4-RORγ (Homo sapiens, UniProt P51449); details: 30 μM, 2 μM ursolic acid
# T3 sequence (P51449 269-508 limits assumed): T1 sequence (P51449 269-508 limits assumed)
# [2] = system: differentiated TH17 cells; assay: TH17 cell differentiation, flow cytometry; format: cell-based, murine; details: murine TH17 cells
# Method: Using flow cytometery surface PD-1 expression was analyzed to determine if the decrease in gene expression of PD-1 correlates to a decrease of the protein on the cell surface, Cell: surface PD-1 expression was measured in murine and human T cell lines as well as in ex vivo differentiated murine TH17 cells. […] Next we examined the impact of compound treatment on differentiated murine TH17 cells. […] To determine if there was an increase in the active T cell population during TH17 cell differentiation, the population of CD62L^−PD1^− double negative cells was measured using flow cytometry. […] To determine if the effects of SR0987 on PD-1 expression would be observed in a human cell line, Jurkat T cells were treated with the compound.
# TH17 cell differentiation. For naïve T cell differentiation, CD4^+T cells were enriched by negative selection using a magnetic-activated cell sorter kit (Millipore). Enriched CD4+ T cells activated with 5 μg/mL of plate-abound anti CD3 antibody and 1 μg/mL of anti-CD28 antibody in the presence of 20 μg/mL of anti-IFNγ, 20 μg/mL of anti-IL-4, 1 ng/mL of TGFβ, AND 10 ng/mL of IL-6. Four-five days post differentiation, all cells were stimulated for 5 hr with 5 ng/mL of phorbol-12-myristate-13-acetate (Sigma) and 500 ng/mL of ionomycin (Sigma) contained with brefeldin A solution (eBioscience).
smiles,measurement,setting,value
CC(C)=CCC[C@@H](C)[C@H]1CC[C@H]2[C@@H]3CC=C4C[C@@H](O)CC[C@]4(C)[C@H]3CC[C@]12C [desmosterol],"Differential HDX kinetics, peptide TEIEHLVQSVC","RORγt LBD; 268-278, charge 2, H1",−1(4)*
same,"Differential HDX kinetics, peptide TEIEHLVQSVCXS","RORγt LBD; 268-280, charge 3, H1",0(5)*
same,"Differential HDX kinetics, peptide TEIEHLVQSVCKSYRETCQ","RORγt LBD; 268-286, charge 2, H1",−5(3)
same,"Differential HDX kinetics, peptide LRLEDL","RORγt LBD; 287-292, charge 2, H2",−5(4)*
same,"Differential HDX kinetics, peptide RLEDLL","RORγt LBD; 288-293, charge 2, H2",−6(3)
same,"Differential HDX kinetics, peptide RLEDLLRQRSNIFSRE","RORγt LBD; 288-303, charge 4, H2/H3",−10(4)
same,"Differential HDX kinetics, peptide WERCAHHLTEAIQ","RORγt LBD; 317-329, charge 2, H4",−5(1)*
same,"Differential HDX kinetics, peptide WERCAHHTEAIQY","RORγt LBD; 317-330, charge 3, H4",−4(1)*
same,"Differential HDX kinetics, peptide WEGAKRLSGF","RORγt LBD; 331-341, charge 2, H4/H5",−1(1)*
same,"Differential HDX kinetics, peptide AKRLSGF","RORγt LBD; 335-341, charge 2, H4/H5",−1(2)*
same,"Differential HDX kinetics, peptide CQNDQVL","RORγt LBD; 345-352, charge 1, H5/H6",0(1)*
same,"Differential HDX kinetics, peptide VRMCRAYNAENRTVF","RORγt LBD; 363-377, charge 3, H6/B1",−7(2)
same,"Differential HDX kinetics, peptide CRAYCAONRTVF","RORγt LBD; 366-377, charge 2, B1",−5(2)
same,"Differential HDX kinetics, peptide FEGKYGGMEL","RORγt LBD; 373-387, charge 2, B2/H7",−6(3)
same,"Differential HDX kinetics, peptide FRALGCSE","RORγt LBD; 386-398, charge 2, H7/H8",−4(3)*
same,"Differential HDX kinetics, peptide LISSIFDFSHSLSAL","RORγt LBD; 395-410, charge 2, H8",−4(2)*
same,"Differential HDX kinetics, peptide ISSIFD","RORγt LBD; 397-402, charge 1, H8",−4(2)*
same,"Differential HDX kinetics, peptide ISSIFDFSHSL","RORγt LBD; 397-407, charge 2, H8",−4(2)*
same,"Differential HDX kinetics, peptide ISSIFDSHSLSAL","RORγt LBD; 397-410, charge 2, H8",−4(2)*
same,"Differential HDX kinetics, peptide DFSHSLSAL","RORγt LBD; 402-410, charge 1, H8",−5(3)
same,"Differential HDX kinetics, peptide FSHSLSAL","RORγt LBD; 403-410, charge 2, H8",−4(3)*
same,"Differential HDX kinetics, peptide HFSEDEIAL","RORγt LBD; 411-419, charge 2, H9",−1(1)*
same,"Differential HDX kinetics, peptide LAFHHHLCKTHRQSL","RORγt LBD; 448-463, charge 4, H10",−3(2)*
same,"Differential HDX kinetics, peptide AKLPFXGKLRSLCSQ","RORγt LBD; 464-478, charge 3, H11",−12(4)
same,"Differential HDX kinetics, peptide HVERLQFQHLHPIVVQ","RORγt LBD; 479-495, charge 2, H11",−12(4)
same,"Differential HDX kinetics, peptide QFQHLHPIVVQ","RORγt LBD; 484-495, charge 2, H11",−6(4)*
same,"Differential HDX kinetics, peptide AAFPPLYXEL","RORγt LBD; 495-505, charge 2, H12",−2(4)*
same,"Differential HDX kinetics, peptide AAFPPLYZELF","RORγt LBD; 496-506, charge 2, H12",−3(3)*
same,HDX kinetics in helix 12 (H12),RORγt LBD; RORγt LBD ± compound,No statistically significant change in HDX kinetics
same,"Differential HDX kinetics, peptide TEIEHLVQ","RORγt LBD; charge 2, H1, percent deuterium exchange difference",−2(5)*
same,protection to solvent exchange in H12,"[1]; RORγt exposed to ursolic acid, then compound",not observed
same,"Differential HDX kinetics, peptide TEIEHLVQ","[1]; UA pretreated, 268-275, charge 2, H1",−1(4)*
same,"Differential HDX kinetics, peptide TEIEHLVQSVC","[1]; UA pretreated, 268-278, charge 2, H1",−2(4)*
same,"Differential HDX kinetics, peptide TEIEHLVQSVCKS","[1]; UA pretreated, 268-280, charge 3, H1",2(2)*
same,"Differential HDX kinetics, peptide TEIEHLVQSVCKSYRETCQ","[1]; UA pretreated, 268-286, charge 3, H1",−1(3)*
same,"Differential HDX kinetics, peptide TEIEHLVQSVCKSYRETCQ","[1]; UA pretreated, 268-286, charge 4, H1",0(3)*
same,"Differential HDX kinetics, peptide RLEDL","[1]; UA pretreated, 288-292, charge 1, H2",10(2)*
same,"Differential HDX kinetics, peptide RLEDLL","[1]; UA pretreated, 288-293, charge 1, H2",10(2)*
same,"Differential HDX kinetics, peptide EVTGYQRKSMWEM","[1]; UA pretreated, 304-316, charge 2, H3/H4",−6(3)*
same,"Differential HDX kinetics, peptide WERCAHHLTEAIQ","[1]; UA pretreated, 317-329, charge 3, H4",−1(1)*
same,"Differential HDX kinetics, peptide WERCAHHTEAIQY","[1]; UA pretreated, 317-330, charge 3, H4",0(1)*
same,"Differential HDX kinetics, peptide WEGAKRLSGF","[1]; UA pretreated, 331-341, charge 2, H4/H5",−1(2)*
same,"Differential HDX kinetics, peptide FAKRLSGF","[1]; UA pretreated, 334-341, charge 2, H4/H5",0(2)*
same,"Differential HDX kinetics, peptide CQNDQM","[1]; UA pretreated, 345-352, charge 1, H5/H6",0(1)*
same,"Differential HDX kinetics, peptide CRAYNADNRTVF","[1]; UA pretreated, 368-377, charge 2, B1",0(2)*
same,"Differential HDX kinetics, peptide YNADNRTVF","[1]; UA pretreated, 369-377, charge 2, B1",−1(3)*
same,"Differential HDX kinetics, peptide FEGKYGGMEL","[1]; UA pretreated, 378-387, charge 2, B2/H7",−1(3)*
same,"Differential HDX kinetics, peptide FRALGCSEL","[1]; UA pretreated, 388-395, charge 2, H7/H8",−1(2)*
same,"Differential HDX kinetics, peptide LISSIFDFSHSLSAL","[1]; UA pretreated, 396-410, charge 2, H8",0(2)*
same,"Differential HDX kinetics, peptide ISSIFD","[1]; UA pretreated, 397-407, charge 1, H8",−3(2)*
same,"Differential HDX kinetics, peptide ISSIFDFSHSLSAL","[1]; UA pretreated, 397-410, charge 2, H8",0(2)*
same,"Differential HDX kinetics, peptide IFDFSHSLSAL","[1]; UA pretreated, 400-410, charge 2, H8",4(3)*
same,"Differential HDX kinetics, peptide DFSHSKSAL","[1]; UA pretreated, 402-410, charge 2, H8",3(2)*
same,"Differential HDX kinetics, peptide FSHSLSAL","[1]; UA pretreated, 403-410, charge 2, H8",0(3)*
same,"Differential HDX kinetics, peptide AXLPPXGKLRSLCSQ","[1]; UA pretreated, 454-478, charge 3, H11",−1(4)*
same,"Differential HDX kinetics, peptide HVERLQIFQHLHPIWQ","[1]; UA pretreated, 479-495, charge 2, H11",−6(3)*
same,"Differential HDX kinetics, peptide AAFPPLYKEL","[1]; UA pretreated, 496-505, charge 2, H12",−4(2)*
same,"Differential HDX kinetics, peptide AAFPPLYKELF","[1]; UA pretreated, 496-506, charge 2, H12",−3(2)*
same,"Differential HDX kinetics, peptide HFSEDEIAL","[1]; UA pretreated, charge 2, H9",−1(2)*
same,"Differential HDX kinetics, peptide QIFQHLHPIWQ","[1]; UA pretreated, charge 2, H11",−3(3)*
same,"Differential HDX kinetics, peptide TEIEHLVQSVCKSYRETCQL","[1]; UA pretreated, charge 3, H1",−3(4)*
same,"Differential HDX kinetics, peptide VRMCRAYNADNRTVF","[1]; UA pretreated, charge 3, H6/B1",−1(1)*
same,induction of luciferase expression at highest concentration of the concentration response curve,Gal4-RORγ,~2 fold
same,IL17 production (intracellular staining of IL17A),[2],trend towards increased IL17 production
same,surface PD-1 expression,[2],no effect
